Experimental data from patent publication US20240150377A1, “MODULATORS OF CYSTIC FIBROSIS TRANSMEMBRANE CONDUCTANCE REGULATOR” (VERTEX PHARMACEUTICALS INCORPORATED, priority 2020, published 2024).

target: T1, CFTR (Homo sapiens, UniProt P13569, DEL508-508); experiment: HBE2 assay: Ussing chamber assay of CFTR-mediated short-circuit currents; assay type: cell-based; conditions: 3 μM corrector; F508del/MF-HBE cells; with 44 nM potentiator, 18-24 hours, 20% human serum
T1 construct: endogenous in cells; host or cells: primary human bronchial epithelial cells from CF subjects (F508del/MF-HBE), differentiated at air-liquid interface
T1 sequence (P13569 with tags, fused parts or gaps DEL508-508): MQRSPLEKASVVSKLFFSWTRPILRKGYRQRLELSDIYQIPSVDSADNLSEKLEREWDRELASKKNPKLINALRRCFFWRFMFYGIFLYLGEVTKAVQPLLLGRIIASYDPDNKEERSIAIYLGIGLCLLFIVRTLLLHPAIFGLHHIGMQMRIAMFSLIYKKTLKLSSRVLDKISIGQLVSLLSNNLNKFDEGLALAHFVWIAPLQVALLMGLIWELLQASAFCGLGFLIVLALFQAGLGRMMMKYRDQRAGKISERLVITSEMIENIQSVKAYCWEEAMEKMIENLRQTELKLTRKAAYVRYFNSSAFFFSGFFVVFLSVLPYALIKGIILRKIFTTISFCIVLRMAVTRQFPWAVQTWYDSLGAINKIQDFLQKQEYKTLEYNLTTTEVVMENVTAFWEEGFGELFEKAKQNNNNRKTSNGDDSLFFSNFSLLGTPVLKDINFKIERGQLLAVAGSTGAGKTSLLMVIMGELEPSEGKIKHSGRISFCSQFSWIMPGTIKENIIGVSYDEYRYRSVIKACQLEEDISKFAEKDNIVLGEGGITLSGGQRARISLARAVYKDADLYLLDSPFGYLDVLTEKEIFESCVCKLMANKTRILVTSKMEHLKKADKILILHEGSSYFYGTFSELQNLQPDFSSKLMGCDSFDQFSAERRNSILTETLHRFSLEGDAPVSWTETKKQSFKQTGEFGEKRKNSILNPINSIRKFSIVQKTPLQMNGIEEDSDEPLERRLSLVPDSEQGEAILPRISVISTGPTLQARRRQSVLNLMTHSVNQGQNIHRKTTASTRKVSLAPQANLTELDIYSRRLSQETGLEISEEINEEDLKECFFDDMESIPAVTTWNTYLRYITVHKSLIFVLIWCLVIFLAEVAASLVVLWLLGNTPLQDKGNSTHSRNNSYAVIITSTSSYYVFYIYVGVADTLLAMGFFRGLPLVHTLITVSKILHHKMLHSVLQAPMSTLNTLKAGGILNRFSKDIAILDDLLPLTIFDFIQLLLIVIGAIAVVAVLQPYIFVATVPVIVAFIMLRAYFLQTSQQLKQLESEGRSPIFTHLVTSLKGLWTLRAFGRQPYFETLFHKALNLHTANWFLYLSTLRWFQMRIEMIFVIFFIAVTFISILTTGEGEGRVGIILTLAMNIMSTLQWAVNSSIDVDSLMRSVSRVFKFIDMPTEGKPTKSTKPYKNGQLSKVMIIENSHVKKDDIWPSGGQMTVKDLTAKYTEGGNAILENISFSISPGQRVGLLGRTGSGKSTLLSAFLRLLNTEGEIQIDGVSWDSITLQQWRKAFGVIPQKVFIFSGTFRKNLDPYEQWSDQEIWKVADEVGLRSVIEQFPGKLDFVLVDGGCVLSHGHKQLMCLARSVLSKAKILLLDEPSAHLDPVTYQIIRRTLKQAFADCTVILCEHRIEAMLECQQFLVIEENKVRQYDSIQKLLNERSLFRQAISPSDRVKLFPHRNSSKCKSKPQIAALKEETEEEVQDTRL
Method in brief: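 F508del/MF-HBE cultured >14 days at air-liquid interface, mounted in Ussing chambers; transepithelial short-circuit current recorded under voltage clamp (Vhold=0 mV) at 37 °C. CFTR-mediated ISC (μA/cm^2) taken as peak forskolin response relative to steady-state current after inhibition; corrector activity assessed this way.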

SMILES | HBE2 Activity at 3 μM (%)
Cc1cccc(C)c1-c1cc2nc(n1)NS(=O)(=O)c1cccc(c1)C(=O)N(Cc1cncc(N3CCCC[C@H]3C)n1)[C@H](C[C@H]1CCCOC1)CO2 (stereo in doubt) [Compound 1942] | +++ (+++ is >60+)
Cc1cccc(C)c1-c1cc2nc(n1)NS(=O)(=O)c1cccc(c1)C(=O)N(Cc1cncc(N3CCCO[C@H]4CC[C@H]43)n1)[C@H](CC(C)(C)C)CO2 (stereo in doubt) [Compound 1951] | +++ (+++ is >60+)
Cc1cccc(C)c1-c1cc2nc(n1)NS(=O)(=O)c1cccc(c1)C(=O)N(Cc1cncc(N3CCCO[C@H]4CC[C@H]43)n1)[C@H](CC(C)(C)C)CO2 (stereo in doubt) [Compound 1952] | +++ (+++ is >60+)
Cc1cccc(C)c1-c1cc2nc(n1)NS(=O)(=O)c1cccc(c1)C(=O)N(Cc1cnc(C)c(N(C)CC(C)C)n1)[C@H](CC(C)(C)C)CO2 [Compound 1322, (11R)-6-(2,6-Dimethylphenyl)-11-(2,2-dimethylpropyl)-12-[[6-[isobutyl(methyl)amino]-5-methyl-pyrazin-2-yl]methyl]-2,2-dioxo-9-oxa-2λ^6-thia-3,5,12,19-tetrazatricyclo[12.3.1.14,8]nonadeca-1(18),4(19),5,7,14,16-hexaen-13-one] | +++ (+++ is >60+)
Cc1cccc(C)c1-c1cc2nc(n1)NS(=O)(=O)c1cccc(c1)C(=O)N(Cc1cncc(N(C)C3CCC3)n1)[C@@H]1CN(C3CC4(CCCC4)C3)C[C@H]1O2 [Compound 1323, (3R,7R)-8-[[6-[Cyclobutyl(methyl)amino]pyrazin-2-yl]methyl]-19-(2,6-dimethylphenyl)-15,15-dioxo-5-spiro[3.4]octan-2-yl-2-oxa-15λ^6-thia-5,8,16,18,21-pentazatetracyclo[15.3.1.110,14.03,7]docosa-1(20),10,12,14(22),17(21),18-hexaen-9-one] | ++ (++ is 30-60%)
Cc1cccc(C)c1-c1cc2nc(n1)NS(=O)(=O)c1cccc(c1)C(=O)N(Cc1cncc(N(C)C3CCC3)n1)[C@H](COC(C)C)CO2 [Compound 1324, (11R)-12-[[6-[Cyclobutyl(methyl)amino]pyrazin-2-yl]methyl]-6-(2,6-dimethylphenyl)-11-(isopropoxymethyl)-2,2-dioxo-9-oxa-2λ^6-thia-3,5,12,19-tetrazatricyclo[12.3.1.14,8]nonadeca-1(18),4(19),5,7,14,16-hexaen-13-one] | +++ (+++ is >60+)
CCC(C)(C)C[C@@H]1COc2cc(-c3c(C)cccc3C)nc(n2)NS(=O)(=O)c2cccc(c2)C(=O)N1Cc1cncc(N(C)C2CCC2)n1 [Compound 1329, 12-[[6-[cyclobutyl(methyl)amino]pyrazin-2-yl]methyl]-11-(2,2-dimethylbutyl)-6-(2,6-dimethylphenyl)-2,2-dioxo-9-oxa-2λ^6-thia-3,5,12,19-tetrazatricyclo[12.3.1.14,8]nonadeca-1(18),4,6,8(19),14,16-hexaen-13-one] | ++ (++ is 30-60%)
Cc1cccc(C)c1-c1cc2nc(n1)NS(=O)(=O)c1cccc(c1)C(=O)N(Cc1cncc(N3CCC[C@H]3C)n1)[C@H](CC1CCCCC1)CO2 [Compound 1331, (11R)-11-(Cyclohexylmethyl)-6-(2,6-dimethylphenyl)-12-[[6-[(2R)-2-methylpyrrolidin-1-yl]pyrazin-2-yl]methyl]-2,2-dioxo-9-oxa-2^6-thia-3,5,12,19-tetrazatricyclo[12.3.1.14,8]nonadeca-1(18),4(19),5,7,14,16-hexaen-13-one] | +++ (+++ is >60+)
Cc1cccc(C)c1-c1cc2nc(n1)NS(=O)(=O)c1cccc(c1)C(=O)N(Cc1cncc(N3CCCOC4CCC43)n1)[C@H](CC(C)(C)C)CO2 (stereo partly drawn) [Compound 1332, (11R)-6-(2,6-Dimethylphenyl)-11-(2,2-dimethylpropyl)-12-[[6-(2-oxa-6-azabicyclo[5.2.0]nonan-6-yl)pyrazin-2-yl]methyl]-2,2-dioxo-9-oxa-2λ^6-thia-3,5,12,19-tetrazatricyclo[12.3.1.14,8]nonadeca-1(18),4(19),5,7,14,16-hexaen-13-one] | +++ (+++ is >60+)
Cc1cccc(C)c1-c1cc2nc(n1)NS(=O)(=O)c1cccc(c1)C(=O)N(Cc1cnc3oc(C(C)C)cc3n1)[C@H](CC(C)(C)C)CO2 [Compound 1333, (11R)-6-(2,6-Dimethylphenyl)-11-(2,2-dimethylpropyl)-12-[(6-isopropylfuro[2,3-b]pyrazin-2-yl)methyl]-2,2-dioxo-9-oxa-2λ6-thia-3,5,12,19-tetrazatricyclo[12.3.1.14,8]nonadeca-1(18),4(19),5,7,14,16-hexaen-13-one] | +++ (+++ is >60+)
Cc1cccc(C)c1-c1cc2nc(n1)NS(=O)(=O)c1cccc(c1)C(=O)N(Cc1cnc3cc(C(C)C)n(C)c3n1)[C@H](CC1CCCC1)CO2 [Compound 1334, (11R)-11-(Cyclopentylmethyl)-6-(2,6-dimethylphenyl)-12-[(6-isopropyl-5-methyl-pyrrolo[2,3-b]pyrazin-3-yl)methyl]-2,2-dioxo-9-oxa-2λ^6-thia-3,5,12,19-tetrazatricyclo[12.3.1.14,8]nonadeca-1(18),4(19),5,7,14,16-hexaen-13-one] | +++ (+++ is >60+)
Cc1cccc(C)c1-c1cc2nc(n1)NS(=O)(=O)c1cccc(c1)C(=O)N(Cc1cncc(N(C)C3CCC3)n1)[C@H](CCC1(C)CC1)CO2 [Compound 1336, 12-[[6-[cyclobutyl(methyl)amino]pyrazin-2-yl]methyl]-6-(2,6-dimethylphenyl)-11-[2-(1-methylcyclopropyl)ethyl]-2,2-dioxo-9-oxa-2λ^6-thia-3,5,12,19-tetrazatricyclo[12.3.1.14,8]nonadeca-1(18),4(19),5,7,14,16-hexaen-13-one] | +++ (+++ is >60+)
Cc1cccc(C)c1-c1cc2nc(n1)NS(=O)(=O)c1cccc(c1)C(=O)N(Cc1cncc(N3CCC[C@H]3C(C)C)n1)[C@H](COC1CC1)CO2 [Compound 1341, (11R)-11-(Cyclopropoxymethyl)-6-(2,6-dimethylphenyl)-12-[[6-[(2S)-2-isopropylpyrrolidin-1-yl]pyrazin-2-yl]methyl]-2,2-dioxo-9-oxa-2^6-thia-3,5,12,19-tetrazatricyclo[12.3.1.14,8]nonadeca-1(18),4(19),5,7,14,16-hexaen-13-one] | +++ (+++ is >60+)

same assay, conditions: 3 μM; F508del/MF-HBE cells; with 44 nM potentiator; 18-24 hours; 20% human serum

SMILES | HBE2 Activity at 3 μM (%)
Cc1cccc(C)c1-c1cc2nc(n1)NS(=O)(=O)c1cccc(c1)CN(Cc1ncc(OC(C)C)cn1)[C@H](CC(C)(C)C)CO2 [Compound 1298] | ++ (++ is 30-60%)
CCc1ccnc(CN2C(=O)c3cccc(c3)S(=O)(=O)Nc3nc(cc(-c4c(C)cccc4C)n3)OC[C@H]2CC(C)(C)C)n1 [Compound 1302, (11R)-6-(2,6-Dimethylphenyl)-11-(2,2-dimethylpropyl)-12-[(4-ethylpyrimidin-2-yl)methyl]-2,2-dioxo-9-oxa-2λ^6-thia-3,5,12,19-tetrazatricyclo[12.3.1.14,8]nonadeca-1(18),4,6,8(19),14,16-hexaen-13-one] | +++ (+++ is >60+)
Cc1cccc(C)c1-c1cc2nc(n1)NS(=O)(=O)c1cccc(c1)C(=O)N(Cc1ncc(OC3CCCC3)c[n+]1[O-])[C@H](CC(C)C)CO2 [Compound 1305, (11R)-12-[[5-(Cyclopentoxy)-1-oxido-pyrimidin-1-ium-2-yl]methyl]-6-(2,6-dimethylphenyl)-11-isobutyl-2,2-dioxo-9-oxa-2λ^6-thia-3,5,12,19-tetrazatricyclo[12.3.1.14,8]nonadeca-1(18),4(19),5,7,14,16-hexaen-13-one] | +++ (+++ is >60+)
Cc1cccc(C)c1-c1cc2nc(n1)NS(=O)(=O)c1cccc(c1)C(=O)N(Cc1cncc(N(C)C3CCC3)n1)[C@H](CC(C)(C)C)CO2 [Compound 1310, (11R)-12-[[6-[Cyclobutyl(methyl)amino]pyrazin-2-yl]methyl]-6-(2,6-dimethylphenyl)-11-(2,2-dimethylpropyl)-2,2-dioxo-9-oxa-2λ^6-thia-3,5,12,19-tetrazatricyclo[12.3.1.14,8]nonadeca-1(18),4(19),5,7,14,16-hexaen-13-one] | +++ (+++ is >60+)
Cc1cccc(C)c1-c1cc2nc(n1)NS(=O)(=O)c1cccc(c1)C(=O)N(Cc1ncc(N3CCC(C)(C)CC3)cn1)[C@H](CCC1CC1)CO2 [Compound 1311, (11R)-11-(2-Cyclopropylethyl)-6-(2,6-dimethylphenyl)-12-[[5-(4,4-dimethyl-1-piperidyl)pyrimidin-2-yl]methyl]-2,2-dioxo-9-oxa-2^6-thia-3,5,12,19-tetrazatricyclo[12.3.1.14,8]nonadeca-1(18),4(19),5,7,14,16-hexaen-13-one] | +++ (+++ is >60+)
Cc1cccc(C)c1-c1cc2nc(n1)NS(=O)(=O)c1cccc(c1)C(=O)N(Cc1coc(N(C)C3CCC3)n1)[C@H](CC(C)(C)C)CO2 [Compound 1318, (11R)-12-[[2-[Cyclobutyl(methyl)amino]oxazol-4-yl]methyl]-6-(2,6-dimethylphenyl)-11-(2,2-dimethylpropyl)-2,2-dioxo-9-oxa-2λ^6-thia-3,5,12,19-tetrazatricyclo[12.3.1.14,8]nonadeca-1(18),4(19),5,7,14,16-hexaen-13-one] | +++ (+++ is >60+)
COCCN(C)c1nc(CN2C(=O)c3cccc(c3)S(=O)(=O)Nc3nc(cc(-c4c(C)cccc4C)n3)OC[C@H]2CC(C)(C)C)co1 [Compound 1409] | +++ (+++ is >60+)

same assay, conditions: F508del/MF-HBE cells; with 44 nM potentiator; 18-24 hours; 20% human serum

SMILES | EC50 [µM]
Cc1cccc(C)c1-c1cc2nc(n1)NS(=O)(=O)c1cccc(c1)C(=O)N(Cc1cncc(N(C)C3CCC3)n1)[C@H](CC(C)(C)C)CO2 [Compound 1310, (11R)-12-[[6-[Cyclobutyl(methyl)amino]pyrazin-2-yl]methyl]-6-(2,6-dimethylphenyl)-11-(2,2-dimethylpropyl)-2,2-dioxo-9-oxa-2λ^6-thia-3,5,12,19-tetrazatricyclo[12.3.1.14,8]nonadeca-1(18),4(19),5,7,14,16-hexaen-13-one] | < 1

same assay, conditions: F508del/MF-HBE cells; with 44 nM potentiator; 18-24 hours; 20% human serum; read-out: HBE2 Max activity (%)

SMILES | Emax [%]
Cc1cccc(C)c1-c1cc2nc(n1)NS(=O)(=O)c1cccc(c1)C(=O)N(Cc1cncc(N(C)C3CCC3)n1)[C@H](CC(C)(C)C)CO2 [Compound 1310, (11R)-12-[[6-[Cyclobutyl(methyl)amino]pyrazin-2-yl]methyl]-6-(2,6-dimethylphenyl)-11-(2,2-dimethylpropyl)-2,2-dioxo-9-oxa-2λ^6-thia-3,5,12,19-tetrazatricyclo[12.3.1.14,8]nonadeca-1(18),4(19),5,7,14,16-hexaen-13-one] | > 60
